Test results: US20260014285A1, “POLYPEPTIDE COMPOUND, AND COMPLEX AND USE THEREOF” (HANGZHOU HEALTHYTIDE BIOTECHNOLOGY CO., LTD., priority 2022, published 2026)
Residues, ends and D or L forms follow the SMILES beside them. *: point of attachment. DOTA = O=C(O)CN1CCN(CC(=O)O)CCN(CC(=O)*)CCN(CC(=O)O)CC1; PEG4 = NCCOCCOCCOCCOCCC(=O)O; AEA = NCCOCC(=O)O

Assays:
Design in all cases: species or system mice
in vivo [1] = details: M-NSG, mouse, iv, 100 uCi, total radioactivity
Protocol: (§1) For example, labeling TM4 with radioactive ^68Ga: An aqueous solution of TM4 (DOTA-Asn-Asp-Val-Ile-Asn-OH) (20 μg) was added to the prepared ^68GaCl3 solution, and the pH was adjusted to 3-5 with aqueous sodium acetate and acetic acid. This system was reacted at 70-95° C. for 15 min, and then purified after the reaction was completed to obtain a labeled solution of ^68Ga-DOTA-Asn-Asp-Val-Ile-Asn-OH (^68Ga-TM4).
(§2) All compounds were labeled with ^68Ga in the same way as described above.
Approximately 100 μCi of ^68Ga injection was injected into the tail vein of M-NSG mice inoculated with H1975. […] Table 6 was obtained by image post-processing.

in vivo [2] = details: naked (nude), mouse, iv, 100 uCi, total radioactivity
Protocol: as §1, §2
Approximately 100 μCi of ^68Ga injection was injected into the tail vein of naked mice inoculated with SKOV3.

in vivo [3] = details: naked (nude), mouse, iv, 100 uCi, total radioactivity; remark: listed apart in the source
Protocol: as §1, §2
Approximately 100 μCi of ^68Ga injection was injected into the tail vein of naked mice inoculated with MC38.

| SMILES | tissue uptake at 1 h (in vivo [1]; % ID/g Bone) | tissue uptake at 1 h (in vivo [1]; % ID/g Brain) | tissue uptake at 1 h (in vivo [1]; % ID/g Heart) | tissue uptake at 1 h (in vivo [1]; % ID/g Intestine) | tissue uptake at 1 h (in vivo [1]; % ID/g Kidney) | tissue uptake at 1 h (in vivo [1]; % ID/g Liver) | tissue uptake at 1 h (in vivo [1]; % ID/g Lung) | tissue uptake at 1 h (in vivo [1]; % ID/g Muscle) | tissue uptake at 1 h (in vivo [1]; % ID/g Tumor) | also measured |
| --- | --- | --- | --- | --- | --- | --- | --- | --- | --- | --- |
| CC[C@H](C)[C@H](NC(=O)[C@@H](NC(=O)[C@H](CC(=O)O)NC(=O)[C@H](CC(N)=O)NC(=O)CN1CCN(CC(=O)O)CCN(CC(=O)O)CCN(CC(=O)O)CC1)C(C)C)C(=O)N[C@@H](CC(N)=O)C(=O)O [^68Ga-TM4, ^68Ga-DOTA-Asn-Asp-Val-Ile-Asn-OH, metal not drawn] ({DOTA}-NDVIN-OH) | 0.3 %ID/g | 0.5 %ID/g | 0.96 %ID/g | 0.56 %ID/g | 4.8 %ID/g | 0.79 %ID/g | 0.47 %ID/g | 0.36 %ID/g | 1.4 %ID/g | – |
| CC[C@H](C)[C@H](NC(=O)[C@@H](NC(=O)[C@H](CC(=O)O)NC(=O)[C@H](CC(N)=O)NC(=O)COCCNC(=O)CN1CCN(CC(=O)O)CCN(CC(=O)O)CCN(CC(=O)O)CC1)C(C)C)C(=O)N[C@@H](CC(N)=O)C(=O)O [^68Ga-TM13, metal not drawn] ({DOTA-AEA}-NDVIN-OH) | 0.13 %ID/g | 0.2 %ID/g | 0.49 %ID/g | 0.6 %ID/g | 3.9 %ID/g | 0.5 %ID/g | 0.32 %ID/g | 0.23 %ID/g | 0.97 %ID/g | tissue uptake at 1 h (in vivo [2]; % ID/g Bladder): 15.6 %ID/g; tissue uptake at 1 h (in vivo [2]; % ID/g Bone): 0.08 %ID/g; tissue uptake at 1 h (in vivo [2]; % ID/g Brain): 0.09 %ID/g; tissue uptake at 1 h (in vivo [2]; % ID/g Heart): 0.17 %ID/g; tissue uptake at 1 h (in vivo [2]; % ID/g Intestine): 0.85 %ID/g; tissue uptake at 1 h (in vivo [2]; % ID/g Kidney): 1.4 %ID/g; tissue uptake at 1 h (in vivo [2]; % ID/g Liver): 0.3 %ID/g; tissue uptake at 1 h (in vivo [2]; % ID/g Lung): 0.12 %ID/g; tissue uptake at 1 h (in vivo [2]; % ID/g Muscle): 0.08 %ID/g; tissue uptake at 1 h (in vivo [2]; % ID/g Tumor): 0.49 %ID/g; tissue uptake at 1 h (in vivo [3]; % ID/g Bladder): 7.3 %ID/g; tissue uptake at 1 h (in vivo [3]; % ID/g Bone): 0.05 %ID/g; tissue uptake at 1 h (in vivo [3]; % ID/g Brain): 0.09 %ID/g; tissue uptake at 1 h (in vivo [3]; % ID/g Heart): 0.11 %ID/g; tissue uptake at 1 h (in vivo [3]; % ID/g Intestine): 0.2 %ID/g; tissue uptake at 1 h (in vivo [3]; % ID/g Kidney): 1.6 %ID/g; tissue uptake at 1 h (in vivo [3]; % ID/g Liver): 0.16 %ID/g; tissue uptake at 1 h (in vivo [3]; % ID/g Lung): 0.08 %ID/g; tissue uptake at 1 h (in vivo [3]; % ID/g Muscle): 0.05 %ID/g; tissue uptake at 1 h (in vivo [3]; % ID/g Tumor): 0.2 %ID/g |
| CC[C@H](C)[C@H](NC(=O)[C@@H](NC(=O)[C@H](CC(=O)O)NC(=O)[C@H](CC(N)=O)NC(=O)CCOCCOCCOCCOCCNC(=O)CN1CCN(CC(=O)O)CCN(CC(=O)O)CCN(CC(=O)O)CC1)C(C)C)C(=O)N[C@@H](CC(N)=O)C(=O)O [^68Ga-TM5, metal not drawn] ({DOTA-PEG4}-NDVIN-OH) | 0.22 %ID/g | 0.25 %ID/g | 0.45 %ID/g | 0.57 %ID/g | 7.4 %ID/g | 0.5 %ID/g | 0.24 %ID/g | 0.21 %ID/g | 1.1 %ID/g | – |
| CC[C@H](C)[C@H](NC(=O)[C@@H](NC(=O)[C@H](CC(=O)O)NC(=O)[C@H](CC(N)=O)NC(=O)[C@H](CC(=O)O)NC(=O)CNC(=O)[C@H](CCCNC(=N)N)NC(=O)CCOCCOCCOCCOCCNC(=O)CN1CCN(CC(=O)O)CCN(CC(=O)O)CCN(CC(=O)O)CC1)C(C)C)C(=O)N[C@@H](CC(N)=O)C(=O)O [^68Ga-TM7, metal not drawn] ({DOTA-PEG4}-RGDNDVIN-OH) | 0.24 %ID/g | 0.24 %ID/g | 0.5 %ID/g | 0.45 %ID/g | 64.5 %ID/g | 0.53 %ID/g | 0.3 %ID/g | 0.28 %ID/g | 0.75 %ID/g | – |
